Measurements published in publication PMC4102782, “Dual Aurora A and JAK2 kinase blockade effectively suppresses malignant transformation” (Oncotarget, 2014).
Where two headings read alike, the source gives them in different places.

Key:
FLT3 = tested on: FLT3; parameters: method as in PMID 15126317; details: cited from earlier work
P-STAT3 = test: Western blot, phosphorylation of STAT3 in HT-29 cells; type: cell-based, human; details: HT-29, Ruxolitinib 20 μM
Procedure: (§1) Cells were plated in 6 cm dishes at a density of 2 × 10^5 cells/dish. Aurora A activity was determined by measuring autophosphorylation of Aurora A on Thr288 in cells that were synchronized by treatment with nocodazole (100 ng/mL) for 20 h prior to the treatment with Aurora inhibitors, whereas Aurora B activity was determined by measuring phosphorylation of histone H3 on Ser-10 (p-HH3). […] Cells were harvested after 2 h of treatment and processed for SDS−PAGE and Western blotting.
(§2) Cells were harvested from experiments of ectopic expression or knockdown using siRNA or the treatment with the inhibitors, washed, and then lysed using lysis buffer as previously described. The protein concentration of the lysate was measured, and the lysate was mixed with gel electrophoresis loading buffer, boiled for 5 minutes, separated by SDS-PAGE, and transferred to nitrocellulose membranes.

HT-29 cells [1] = test: Matrigel Transwell invasion, HT-29; type: cell-based, human; details: HT-29, Ruxolitinib 40 μM
Source text: Medium containing 10%FBS was placed in the lower chamber. […] Invading cells in the membrane were fixed with 100% methanol and stained with fresh prepared 0.2% crystal violet. Noninvasive cells in the upper chamber were removed by wiping the upper side of the membrane with a cotton swab, and cells located on the underside of the filter were observed and photographed under Olympus stereo microscope. The number of invading cells was counted using Image-Pro analysis software.

MDA-MB-468 cells [2] = test: Anchorage-dependent proliferation, MTT assay, MDA-MB-468; type: cell-based; details: Homo sapiens, 48 h
Procedure: (§3) Cells were cultured in 96 well plates at a density of 2,000 cells/ well. The cells with siRNA transfection or with the inhibitor treatment were monitored for viability using MTT at indicated time points. At the given time points, MTT reagent was added to the media and allowed to incubate for 3 h at 37° C in a humidified incubator at 5% CO2. The medium was then removed and MTT crystals were dissolved in DMSO (Sigma). Cell viability was quantified by reading the plates at an absorbance of 540 nm on a μQuant microplate reader using KC4 data analysis software (Bio-Tek Instruments). The 540 nm absorbance of vehicle-treated wells was used to define 100% proliferation. Each condition was performed in replicates of six wells.

MDA-MB-468 cells [3] = test: Matrigel Transwell invasion, MDA-MB-468; type: cell-based, human; details: MDA-MB-468, Ruxolitinib 30 μM
Procedure: Cells were transfected with Aurora A and JAK2 for 48 h or with siRNA for 72 h or treated with the compounds for 24 h and then were trypsinized and resuspended in serum-free medium and placed in the upper chamber of the Matrigel-coated (0.8 μg/μL, BD Biosciences, San Diego, CA) Transwell insert (from 2 to 5 × 10^4 cells/well) and with 0.5% DMSO or the compounds at the indicated dose. Medium containing 10%FBS was placed in the lower chamber. […] Invading cells in the membrane were fixed with 100% methanol and stained with fresh prepared 0.2% crystal violet. Noninvasive cells in the upper chamber were removed by wiping the upper side of the membrane with a cotton swab, and cells located on the underside of the filter were observed and photographed under Olympus stereo microscope. The number of invading cells was counted using Image-Pro analysis software.

P-Histone H3 = test: Western blot, phosphorylation of Histone H3 in HT-29 cells; type: cell-based, human; details: HT-29, Ruxolitinib 20 μM
Procedure: as §1, §2

[4] = tested on: P-Histone H3 (Ser-10), Aurora B substrate; test: Western blot, phosphorylation of Histone H3 in MDA-MB-468 cells; type: cell-based, human
Procedure: as §1, §2

[5] = tested on: P-STAT3 (Y705), JAK2 substrate; test: Western blot, phosphorylation of STAT3 in MDA-MB-468 cells; type: cell-based, human
Procedure: as §1, §2

[6] = tested on: PARP cleavage and Caspase 3 activation in MDA-MB-468 cells; test: Apoptosis by Western blot of PARP cleavage and Caspase 3 activation, MDA-MB-468; type: cell-based, human; details: MDA-MB-468, single agent, low concentration, e.g. Ruxolitinib 0.4 μM
Procedure: Cells were harvested from experiments of ectopic expression or knockdown using siRNA or the treatment with the inhibitors, washed, and then lysed using lysis buffer as previously described. The protein concentration of the lysate was measured, and the lysate was mixed with gel electrophoresis loading buffer, boiled for 5 minutes, separated by SDS-PAGE, and transferred to nitrocellulose membranes. […] To evaluate the effect of inhibitors on cell cycle progression, cells were treated with inhibitors at indicated dose or DMSO control and then harvested, fixed with 70% ethanol pretreated with RNase, and stained with propidium iodide (PI) (Sigma) as previously described for flow cytometry analysis. For the detection of apoptosis, cells were cultured for 24 h in medium with inhibitors at indicated dose or DMSO control and harvested for SDS-PAGE and Western blotting. The siRNA or drug treatment-induced apoptosis was detected by Western blot analysis of the cleavage of PARP and caspase-3.

HT-29 cells [7] = test: Soft agar anchorage-independent growth, HT-29; type: cell-based, human; details: HT-29, Ruxolitinib 20 μM
Procedure: (§4) The cells were allowed to incubate at 37° C for 3 weeks and fed once per week with the inhibitor before 1 mg/ml MTT (Sigma) solution was added overnight to facilitate colony counting. Colonies were scored and counted according to size, as previously described.

[8] = tested on: Aurora A auto-phosphorylation (Thr-288); test: Western blot, Aurora A auto-phosphorylation in nocodazole-synchronized MDA-MB-468 cells; type: cell-based, human; details: MDA-MB-468, nocodazole-synchronized, 2 h
Procedure: as §1, §2

HT29 cells = test: Anchorage-dependent proliferation, MTT assay, HT29; type: cell-based; details: Homo sapiens, HT-29, 48 h
Procedure: as §3

MDA-MB-468 cells [9] = test: Soft agar anchorage-independent growth, MDA-MB-468; type: cell-based, human; details: MDA-MB-468, Ruxolitinib 30 μM
Procedure: as §4, with “For analysis of anchorage-independent growth, log-phase growing cells were trypsinized, and triplicates of 1.5 × 10^3 cells per well were seeded in regular growth medium containing 0.3% agar (Sigma) and drug added at the indicated concentrations, as previously described. The” for “The”

MDA-MB-468 cells [10] = test: Cell-cycle analysis by flow cytometry, MDA-MB-468; type: cell-based, human; details: MDA-MB-468, same conditions, data not shown
Procedure: To evaluate the effect of inhibitors on cell cycle progression, cells were treated with inhibitors at indicated dose or DMSO control and then harvested, fixed with 70% ethanol pretreated with RNase, and stained with propidium iodide (PI) (Sigma) as previously described for flow cytometry analysis. For the detection of apoptosis, cells were cultured for 24 h in medium with inhibitors at indicated dose or DMSO control and harvested for SDS−PAGE and Western blotting. The siRNA or drug treatment-induced apoptosis was detected by Western blot analysis of the cleavage of PARP and caspase-3.

For N#CC[C@H](C1CCCC1)n1cc(-c2ncnc3[nH]ccc23)cn1 [Ruxolitinib], the “effect on P-STAT3” value (P-STAT3) was “inhibited P-STAT3”, the invaded cells (HT-29 cells [1]; vehicle 1066) was 305 cells and the inhibition at 40 µM (HT-29 cells [1]; Homo sapiens) was 71.4%. It also gave an IC50 (MDA-MB-468 cells [2]; MDA-MB-468, MTT) of 26 µM, an inhibition at 35 µM (MDA-MB-468 cells [2]; MDA-MB-468, Ruxolitinib 35 μM) of 51.2% and an inhibition at 30 µM (MDA-MB-468 cells [3]; Homo sapiens) of 48.6%. For the same compound, the invaded cells (MDA-MB-468 cells [3]; vehicle 344) was 177 cells, the “effect on P-Histone H3” value (P-Histone H3) was “not P-Histone H3” and the “effect on P-Histone H3” value ([4]; MDA-MB-468, Ruxolitinib 30 μM) was “not P-Histone H3”. The “effect on phosphorylation of Histone H3 (Ser-10)” value ([4]; MDA-MB-468, increasing concentrations, 2 h) was “not that of Histone H3”, the “effect on P-STAT3” value [5] was “inhibited P-STAT3” and the “effect on phosphorylation of STAT3 (Y705)” value [5] was “able to inhibit the phosphorylation of STAT3”. The PARP cleavage [6] was “neither Alisertib nor Ruxolitinib induced PARP cleavage”, the soft agar colonies (HT-29 cells [7]; vehicle 129) was 72 colonies and the inhibition at 20 µM (HT-29 cells [7]; Homo sapiens, read-out: inhibition of soft agar colonies) was 44.2%. For the same compound, the “effect on auto-phosphorylation of Aurora A” value [8] was “not that of Histone H3 or the auto-phosphorylation of Aurora A”, the IC50 (HT29 cells; HT29, MTT) was 44.7 µM and the inhibition at 20 µM (HT29 cells; HT29, Ruxolitinib 20 μM) was 14.3%. The inhibition at 30 µM (MDA-MB-468 cells [9]; Homo sapiens) was 23.7% and the soft agar colonies (MDA-MB-468 cells [9]; vehicle 131) was 100 colonies.
For Cc1cc(Nc2cc(N3CCN(C)CC3)nc(Sc3ccc(NC(=O)C4CC4)cc3)n2)[nH]n1 [VX-680, Tozasertib], the “effect on phosphorylation of Histone H3 (Ser-10)” value [4] was “highly effective at inhibiting”, the G2/M accumulation (MDA-MB-468 cells [10]) was “induced a significant G2/M accumulation” and the “effect on auto-phosphorylation of Aurora A” value [8] was “highly effective at inhibiting”.
